These are literature values, as cited in US8754055B2, “Methods, compositions, and kits for collecting and detecting oligonucleotides” (The Invention Science Fund I, LLC, priority 2008, dated 2014).

The conditions of data set [1]: 40, 8, and 1.6 μg injections once daily over 35 days.
The conditions of data set [2]: in humans.
Data set [3] deals with T1, RNase A (Bos taurus, UniProt P61823).
T1 sequence (P61823 27-150): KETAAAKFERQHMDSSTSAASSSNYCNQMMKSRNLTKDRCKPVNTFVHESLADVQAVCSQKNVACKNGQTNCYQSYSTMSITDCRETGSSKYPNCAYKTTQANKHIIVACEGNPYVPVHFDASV
The conditions noted are these: RNAse A catalysis, read-out: inhibition constant (Ki).

Like-named read-outs stand apart in the source and are kept apart here.

For the compound `Nc1ccc(N=Nc2ccc(-c3ccc(O)cc3)cc2)c2ccc(S(=O)(=O)O)cc12` [8-amino-5-(4′-hydroxylbiphenyl-4-ylazo)naphthalene-2-sulfonate], the overt toxicity entry in data set [1] was “without overt toxicity”. By half-life is commonly meant how long it takes for the measured level to halve. Take Etanercept: the half-life in data set [2] is 70 h. Broadly, the Ki is a dissociation constant, usually derived from enzyme kinetics or from competition with a known ligand. Regarding oligo(vinylsulfonic acid), the results for the Ki in data set [3] (0 mM sodium chloride (lower end of salt-dependent range)) and in data set [3] (100 mM sodium chloride (upper end of salt-dependent range)) were about 0.01 nM and about 120 nM, respectively.
